In patent US5602106A, “16-membered macrolide derivatives” (priority 1993, dated 1997):
Converted amounts (≈) assume the structure as drawn. Read-outs that look alike come from different tables or passages of the source.

Columns and labels:
Type in all cases: cell-based
[1] = tested on: test strains; experiment: Antimicrobial activity in vitro, test strains overall; details: 9-O-acylated vs free 9-hydroxyl
Description: (§1) The effect of the first aspect of the present invention resides in the creation of a novel and useful 16-membered macrolide derivative. Antimicrobial activities of the compounds of the present invention were determined by measuring minimum inhibitory concentration (MIC). Minimum inhibitory concentration was determined by the agar plate dilution method in the following manner.
(§2) Test strains were subjected to seed culture using Sensitivity test broth (STB, Nissui Pharmaceutical) except that the strains belonging to the genus Streptococcus, Branhamella and Haemophilus were cultured on blood agar plate. A 5 μl portion of cell suspension of the test strains having about 10^6 CFU/ml was inoculated into Sensitivity disk agar (SDA, Nissui Pharmaceutical) supplemented with 5% horse blood and incubated at 37° C. for 20 hours. Then, MIC was measured. […] Antimicrobial activities in vitro of the compounds (1) and (2) are shown in Table 1, and those of the compounds (3) and (4) in Table 3.

[2] = tested on: K. pneumoniae PCI602; experiment: MIC, agar plate dilution method; details: Klebsiella pneumoniae, 37° C., SDA with 5% horse blood, read-out: Antimicrobial activity (MIC)
Description: as §1, §2

[3] = tested on: S. aureus MS15026; experiment: MIC, agar plate dilution method; details: Staphylococcus aureus, 37° C., 20 hours, SDA with 5% horse blood, read-out: Antimicrobial activity (MIC)
Description: as §1, §2

[4] = tested on: B. catarrhalis W-0500; experiment: MIC, agar plate dilution method; details: Moraxella catarrhalis
Description: as §1, §2

[5] = tested on: S. pyogenes Cook; experiment: MIC, agar plate dilution method; details: Streptococcus pyogenes; 37° C., 20 hours, SDA with 5% horse blood; read-out: Antimicrobial activity (MIC)
Description: as §1, §2

[6] = tested on: S. aureus MS15027; experiment: MIC, agar plate dilution method; details: Staphylococcus aureus
Description: as §1, §2

[7] = tested on: S. aureus MS15009/pMS99; experiment: MIC, agar plate dilution method; details: Staphylococcus aureus, MS15009/PMS99, 20 h, read-out: Antimicrobial activity (MIC)
Description: as §1, §2

[8] = tested on: S. aureus M126; experiment: MIC, agar plate dilution method; details: Staphylococcus aureus, 37° C., 20 hours, SDA with 5% horse blood, read-out: Antimicrobial activity (MIC)
Description: as §1, §2

[9] = tested on: S. pneumoniae Type 1; experiment: MIC, agar plate dilution method; details: Streptococcus pneumoniae
Description: as §1, §2

[10] = tested on: B. catarrhalis W-0506; experiment: MIC, agar plate dilution method; details: Moraxella catarrhalis
Description: as §1, §2

[11] = tested on: M. luteus ATCC9341; experiment: MIC, agar plate dilution method; details: Micrococcus luteus
Description: as §1, §2

[12] = tested on: S. epidermidis ATCC14990; experiment: MIC, agar plate dilution method; details: Staphylococcus epidermidis
Description: as §1, §2

[13] = tested on: E. coli NIHJ JC-2; experiment: MIC, agar plate dilution method; details: Escherichia coli, NIHJJC2, 20 h, 37° C., SDA with 5% horse blood, read-out: Antimicrobial activity (MIC)
Description: as §1, §2

[14] = tested on: H. influenzae Type b; experiment: MIC, agar plate dilution method; details: Haemophilus influenzae
Description: as §1, §2

[15] = tested on: S. aureus 209P JC-1; experiment: MIC, agar plate dilution method; details: Staphylococcus aureus, 209P, 20 h
Description: as §1, §2

[16] = tested on: E. faecalis W-73; experiment: MIC, agar plate dilution method; details: Enterococcus faecalis, W73, 20 h, read-out: Antimicrobial activity (MIC)
Description: as §1, §2

[17] = tested on: S. aureus M133; experiment: MIC, agar plate dilution method; details: Staphylococcus aureus, M133, 20 h
Description: as §1, §2

[18] = tested on: S. pneumoniae IP692; experiment: MIC, agar plate dilution method; details: Streptococcus pneumoniae, IP692, 20 h
Description: as §1, §2

[19] = tested on: S. aureus MS15009/pMS98; experiment: MIC, agar plate dilution method; details: Staphylococcus aureus, MS15009/PMS98, 20 h, read-out: Antimicrobial activity (MIC), 37° C., 20 hours, SDA with 5% horse blood
Description: as §1, §2

[20] = W0500, 37° C., 20 hours, SDA with 5% horse blood, read-out: Antimicrobial activity (MIC)
[21] = MS15027, 20 h, read-out: Antimicrobial activity (MIC), 37° C., 20 hours, SDA with 5% horse blood
[22] = MS15027, 37° C., 20 hours, SDA with 5% horse blood, read-out: Antimicrobial activity (MIC)
[23] = TYPE1, 20 h, read-out: Antimicrobial activity (MIC), 37° C., 20 hours, SDA with 5% horse blood
[24] = TYPE1, 37° C., 20 hours, SDA with 5% horse blood, read-out: Antimicrobial activity (MIC)
[25] = W0506, 37° C., 20 hours, SDA with 5% horse blood, read-out: Antimicrobial activity (MIC)
[26] = ATCC9341, 20 h, read-out: Antimicrobial activity (MIC), 37° C., 20 hours, SDA with 5% horse blood
[27] = ATCC9341, 37° C., 20 hours, SDA with 5% horse blood, read-out: Antimicrobial activity (MIC)
[28] = ATCC14990, 20 h, read-out: Antimicrobial activity (MIC), 37° C., 20 hours, SDA with 5% horse blood
[29] = ATCC14990, 37° C., 20 hours, SDA with 5% horse blood, read-out: Antimicrobial activity (MIC)
[30] = 20 h, read-out: Antimicrobial activity (MIC), 37° C., 20 hours, SDA with 5% horse blood
[31] = 37° C., 20 hours, SDA with 5% horse blood, read-out: Antimicrobial activity (MIC)
[32] = read-out: Antimicrobial activity (MIC), 37° C., 20 hours, SDA with 5% horse blood

SMILES: CCCC(=O)O[C@H]1[C@H](C)O[C@@H](O[C@H]2[C@H](N(C)C)[C@@H](O)[C@H](O[C@H]3[C@@H](CC=O)C[C@@H](C)[C@@H](OC(C)=O)/C=C/C=C/C[C@@H](C)OC(=O)C[C@@H](O)[C@@H]3OC)O[C@@H]2C)C[C@@]1(C)OC [(39), 9-O-acetyl-3"-O-methylleucomycin A5]
- antimicrobial activities compared with starting materials (1), (2) and (33) [1]: strong antimicrobial activities by themselves though slightly lower than those of their starting materials

SMILES: CCCC(=O)O[C@H]1[C@H](C)O[C@@H](O[C@H]2[C@H](N(C)C)[C@@H](O)[C@H](O[C@H]3[C@@H](CC=O)C[C@@H](C)[C@@H](OC(=O)CC)/C=C/C=C/C[C@@H](C)OC(=O)C[C@@H](O)[C@@H]3OC)O[C@@H]2C)C[C@@]1(C)OC [(40), 9-O-propionyl-3"-O-methylleucomycin A5]
- antimicrobial activities compared with starting materials (1), (2) and (33) [1]: strong antimicrobial activities by themselves though slightly lower than those of their starting materials

SMILES: CCC(=O)O[C@H]1[C@H](C)O[C@@H](O[C@H]2[C@H](N(C)C)[C@@H](O)[C@H](O[C@H]3[C@@H](CC=O)C[C@@H](C)[C@@H](O)/C=C/C=C/C[C@@H](C)OC(=O)C[C@@H](O)[C@@H]3OC)O[C@@H]2C)C[C@@]1(C)O [LM-A7, leucomycin A7, reference compound]
- MIC ([2]; PCI602, 20 h): > 100 µg/mL
- MIC [3]: > 100 µg/mL
- MIC ([4]; W0500, 20 h, read-out: Antimicrobial activity (MIC), 37° C., 20 hours, SDA with 5% horse blood): 12.5 µg/mL (≈ 16.5 µM)
- MIC [4, 20]: 0.78 µg/mL (≈ 1.03 µM)
- MIC [5]: 0.39 µg/mL (≈ 0.515 µM)
- MIC [6, 21]: 3.13 µg/mL (≈ 4.13 µM)
- MIC [6, 22]: 0.39 µg/mL (≈ 0.515 µM)
- MIC [7]: > 100 µg/mL
- MIC [8]: > 100 µg/mL
- MIC [9, 23]: 0.2 µg/mL (≈ 0.264 µM)
- MIC [9, 24]: 0.39 µg/mL (≈ 0.515 µM)
- MIC ([10]; W0506, 20 h, read-out: Antimicrobial activity (MIC), 37° C., 20 hours, SDA with 5% horse blood): 12.5 µg/mL (≈ 16.5 µM)
- MIC [10, 25]: 0.78 µg/mL (≈ 1.03 µM)
- MIC [11, 26]: 0.2 µg/mL (≈ 0.264 µM)
- MIC [11, 27]: 0.05 µg/mL (≈ 0.066 µM)
- MIC [12, 28]: 3.13 µg/mL (≈ 4.13 µM)
- MIC [12, 29]: 0.39 µg/mL (≈ 0.515 µM)
- MIC [13]: > 100 µg/mL
- MIC [14, 30]: 50 µg/mL (≈ 66 µM)
- MIC [14, 31]: 6.25 µg/mL (≈ 8.25 µM)

SMILES: CCC(=O)O[C@@H]1CC(=O)O[C@H](C)C/C=C/C=C/[C@H](O)[C@H](C)C[C@H](CC=O)[C@H](O[C@@H]2O[C@H](C)[C@@H](O[C@H]3C[C@@](C)(O)[C@@H](OC(=O)CC)[C@H](C)O3)[C@H](N(C)C)[C@H]2O)[C@H]1OC [MDM, midecamycin A1, reference compound]
- MIC [15, 31]: 0.39 µg/mL (≈ 0.479 µM)
- MIC ([2]; PCI602, 20 hours): > 100 µg/mL
- MIC [3]: > 100 µg/mL
- MIC ([16]; 37° C., 20 hours, SDA with 5% horse blood): 3.13 µg/mL (≈ 3.85 µM)
- MIC [4, 20]: 3.13 µg/mL (≈ 3.85 µM)
- MIC [6, 22]: 0.78 µg/mL (≈ 0.958 µM)
- MIC [17, 31]: 0.78 µg/mL (≈ 0.958 µM)
- MIC [7]: > 100 µg/mL
- MIC [18, 31]: 0.39 µg/mL (≈ 0.479 µM)
- MIC [8]: > 100 µg/mL
- MIC [9, 24]: 0.39 µg/mL (≈ 0.479 µM)
- MIC [10, 25]: 3.13 µg/mL (≈ 3.85 µM)
- MIC [19]: 0.39 µg/mL (≈ 0.479 µM)
- MIC [11, 27]: 0.05 µg/mL (≈ 0.0614 µM)
- MIC [12, 29]: 0.78 µg/mL (≈ 0.958 µM)
- MIC [14, 31]: 25 µg/mL (≈ 30.7 µM)

SMILES: CCC(=O)O[C@@H]1CC(=O)O[C@H](C)C/C=C/C=C/[C@H](O)[C@H](C)C[C@H](CC=O)[C@H](O[C@@H]2O[C@H](C)[C@@H](O[C@H]3C[C@@](C)(O)[C@@H](O)[C@H](C)O3)[C@H](N(C)C)[C@H]2O)[C@H]1OC [MDM-M1, midecamycin M1, reference compound]
- MIC [15, 32]: 6.25 µg/mL (≈ 8.25 µM)
- MIC ([2]; PCI602, 20 h): > 100 µg/mL
- MIC [3]: > 100 µg/mL
- MIC [16]: 12.5 µg/mL (≈ 16.5 µM)
- MIC [4, 20]: 25 µg/mL (≈ 33 µM)
- MIC [5]: 1.56 µg/mL (≈ 2.06 µM)
- MIC [6, 21]: 6.25 µg/mL (≈ 8.25 µM)
- MIC [17, 32]: 12.5 µg/mL (≈ 16.5 µM)
- MIC [7]: > 100 µg/mL
- MIC [18, 32]: 0.78 µg/mL (≈ 1.03 µM)
- MIC [8]: > 100 µg/mL
- MIC [9, 23]: 0.78 µg/mL (≈ 1.03 µM)
- MIC [10, 25]: 25 µg/mL (≈ 33 µM)
- MIC [19]: 6.25 µg/mL (≈ 8.25 µM)
- MIC [11, 26]: 0.39 µg/mL (≈ 0.515 µM)
- MIC [12, 28]: 12.5 µg/mL (≈ 16.5 µM)
- MIC [13]: > 100 µg/mL
- MIC [14, 30]: 100 µg/mL (≈ 132 µM)
